Measurements as given in US20090023667A1 (priority 2005, published 2009).
Where two headings read alike, the source gives them in different places.

Legend:
Format in all cases: in vivo
Pyricularia oryzae [1] = assay: whole plant or invertebrate
Pyricularia oryzae [2] = tested on: Pyricularia oryzae
Rhizoctonia solani [3] = assay: Test Example 4: control test on paddy rice sheath blight, spraying
Protocol: A compound solution of a prescribed concentration was sprayed on three 1/5000a rice pots (cultivar: Koshihikari; 4 leaf stage). After one day from the spraying, Rhizoctonia solani cultured on a rice chaff/bran medium was inoculated on the basal of the rice plant. After 10 days from the inoculation, the extended lesion length of sheath blight of the whole stem was examined. The control value was calculated according to the following equation (3 replications).
(§1) Control Value=(1−average lesion length per a stem in the treated plot/average lesion length per a stem in the untreated plot)×100

Rhizoctonia solani [4] = assay: Test Example 5: control test on paddy rice sheath blight, submerged application; conditions: submerged application of granule
Protocol: (§2) After 14 days from the treatment, Rhizoctonia solani cultured on a rice chaff/bran medium was inoculated on the basal of the rice plant. After 10 days from the inoculation, the extended lesion length of sheath blight of the whole stem was examined. The control value was calculated according to the following equation (3 replications).
as §1

Rhizoctonia solani [5] = assay: Test Example 6: control test on paddy rice sheath blight, nursery box application; conditions: nursery box application of granule
Protocol: as §2, with “30” for “14”
as §1

Pyricularia oryzae [6] = conditions: rice blast, nursery box application of granule
[7] = Pyricularia oryzae, 168 h, read-out: Control value
[8] = rice blast, sprayed at 60 ppm active ingredient, lesions after 7 days

## O=C1OCc2c(Cl)c(Cl)c(Cl)c(Cl)c21 [Fthalide, reference compound]
Pyricularia oryzae [1]; [7]
  pest or weed control at 300 ppm: 97%

## Cc1ccc(C(=O)NCC(NC(=O)OCCF)C(C)C)cc1 (stereo not drawn) [Compound 2]
Pyricularia oryzae [2]; in vivo
  Effect (class of control value): A (key: A: Not less than 80%; B: Not less than 50% to less than 80%; C: Less than 50%)

## Cc1ccccc1C(=O)Nc1cccc(OC(C)C)c1 [Mepronil, reference compound]
Rhizoctonia solani [3]; 750 ppm
  Control value: 94

## Cc1ccc(C(=O)NCC(NC(=O)OCC(F)(F)C(F)(F)C(F)(F)F)C(C)C)cc1 (stereo not drawn) [Compound 13]
Pyricularia oryzae [2]; in vivo
  Effect (class of control value): A (key: A: Not less than 80%; B: Not less than 50% to less than 80%; C: Less than 50%)

## Cc1ccc(C(=O)NCC(NC(=O)OCC(F)(F)F)C2CCCC2)cc1 (stereo not drawn) [Compound 36]
Pyricularia oryzae [2]; in vivo
  Effect (class of control value): A (key: A: Not less than 80%; B: Not less than 50% to less than 80%; C: Less than 50%)

## OCC1=C[C@H](N[C@H]2C[C@H](CO)[C@@H](O[C@@H]3O[C@H](CO)[C@@H](O)[C@H](O)[C@H]3O)[C@H](O)[C@H]2O)[C@H](O)[C@@H](O)[C@@H]1O [Validamycin, reference compound]
Rhizoctonia solani [3]; 60 ppm
  Control value: 94

## C[C@H]1O[C@H](O[C@H]2[C@H](O)[C@@H](O)[C@@H](O)[C@H](O)[C@@H]2O)[C@@H](N)C[C@@H]1NC(=N)C(=O)O [Kasugamycin, reference compound]
Pyricularia oryzae [1]; rice blast, spraying, 20 ppm
  Control value: 97

## Cc1nn(C)c(Cl)c1C(=O)Nc1cccc2c1C(C)OC2(C)C (stereo not drawn) [Furametpyr, reference compound]
Rhizoctonia solani [3]; 100 ppm
  Control value: 95
Rhizoctonia solani [4]; 45 gai/10a
  Control value: 96
Rhizoctonia solani [5]; 2 gai/box
  Control value: 96

## CC(C)CC(C)c1sccc1NC(=O)c1cn(C)nc1C(F)(F)F (racemic) [Penthiopyrad, (RS)—N-[2-(1,3-dimethylbutyl)thiophene-3-yl]-1-methyl-3-trifluoromethyl-1H-pirazole-4-carboxamide, reference compound]
Pyricularia oryzae [1]; [7]
  pest or weed control at 200 ppm: 95%

## CC(=O)Oc1c(C)c(C)nc2c(F)cc(C(C)(C)C)cc12 [Compound 105, reference compound]
Pyricularia oryzae [1]; [7]
  pest or weed control at 300 ppm: 98%

## CCOP(=O)(Sc1ccccc1)Sc1ccccc1 [EDDP, reference compound]
Pyricularia oryzae [1]; 300 ppm
  Control value: 97

## Cc1ccc(C(=O)NCC(NC(=O)OCCBr)C(C)C)cc1 (stereo not drawn) [Compound 4]
Pyricularia oryzae [2]; in vivo
  Effect (class of control value): A (key: A: Not less than 80%; B: Not less than 50% to less than 80%; C: Less than 50%)

## O=C(Nc1ccccc1)N(Cc1ccc(Cl)cc1)C1CCCC1 [Pencycuron, reference compound]
Rhizoctonia solani [3]; 167 ppm
  Control value: 95

## CC(CNC(=O)c1cc2ccccc2o1)NC(=O)OCC(F)(F)F (stereo not drawn) [Compound 40]
Pyricularia oryzae [2]; in vivo
  Effect (class of control value): A (key: A: Not less than 80%; B: Not less than 50% to less than 80%; C: Less than 50%)
Pyricularia oryzae [1]; 60 ppm
  Control value: 97
Rhizoctonia solani [3]; 60 ppm
  Control value: 4

## CC(C)C(CNC(=O)c1nc2ccc(F)cc2s1)NC(=O)OCC(F)(F)F (stereo not drawn) [Compound 37]
Pyricularia oryzae [2]; in vivo
  Effect (class of control value): A (key: A: Not less than 80%; B: Not less than 50% to less than 80%; C: Less than 50%)
Pyricularia oryzae [1]; 60 ppm
  Control value: 98
Rhizoctonia solani [3]; 60 ppm
  Control value: 3

## CO/C=C(/C(=O)OC)c1ccccc1Oc1cc(Oc2ccccc2C#N)ncn1 [Azoxystrobin, reference compound]
Rhizoctonia solani [3]; 80 ppm
  Control value: 93

## CCC(CC)C(CNC(=O)c1ccc(C)cc1)NC(=O)OCC(F)(F)F (stereo not drawn) [Compound 39]
Pyricularia oryzae [2]; in vivo
  Effect (class of control value): A (key: A: Not less than 80%; B: Not less than 50% to less than 80%; C: Less than 50%)

## CC(C)C(CNC(=O)c1nc2ccccc2s1)NC(=O)OCC(F)(F)F (stereo not drawn) [Compound 38]
Pyricularia oryzae [2]; in vivo
  Effect (class of control value): A (key: A: Not less than 80%; B: Not less than 50% to less than 80%; C: Less than 50%)
Pyricularia oryzae [1]; 60 ppm
  Control value: 96
Rhizoctonia solani [3]; 60 ppm
  Control value: 3

## Cc1nc(C(F)(F)F)c(C(=O)Nc2c(Br)cc(OC(F)(F)F)cc2Br)s1 [Thifluzamide, reference compound]
Rhizoctonia solani [4]; 60 gai/10a
  Control value: 95
Rhizoctonia solani [5]; 1 gai/box
  Control value: 95

## Cc1ccc(C(=O)NCC(NC(=O)OCCCCl)C(C)C)cc1 (stereo not drawn) [Compound 10]
Pyricularia oryzae [2]; in vivo
  Effect (class of control value): A (key: A: Not less than 80%; B: Not less than 50% to less than 80%; C: Less than 50%)

## Cc1c(Cl)cc(-c2ccc(=O)[nH]n2)cc1Cl [Diclomezine, reference compound]
Rhizoctonia solani [3]; 20 ppm
  Control value: 95

## C=CCOC1=NS(=O)(=O)c2ccccc21 [Probenazole]
Pyricularia oryzae [6]; 12 gai/box
  Control value: 98

## Cc1ccc(C(=O)NCC(NC(=O)Oc2ccc3ccccc3c2)C(C)C)cc1 (stereo not drawn) [Formula (16), reference compound]
Pyricularia oryzae [2]; [8]
  Effect (class of control value): C (Less than 50%)

## CSCC(C)OC(=O)NC(CNC(=O)c1ccc(C)cc1)C(C)C (stereo not drawn) [Formula (17), reference compound]
Pyricularia oryzae [2]; [8]
  Effect (class of control value): C (Less than 50%)

## Cc1cccc2sc3nncn3c12 [Tricyclazole, reference compound]
Pyricularia oryzae [1]; [7]
  pest or weed control at 200 ppm: 99%
Pyricularia oryzae [6]; 2 gai/box
  Control value: 96

## Cc1ccc(C(=O)NCC(NC(=O)OC2CCCCC2F)C(C)C)cc1 (stereo not drawn) [Compound 16]
Pyricularia oryzae [2]; in vivo
  Effect (class of control value): A (key: A: Not less than 80%; B: Not less than 50% to less than 80%; C: Less than 50%)

## CC(C)Oc1cccc(NC(=O)c2ccccc2C(F)(F)F)c1 [Flutolanil, reference compound]
Rhizoctonia solani [3]; 250 ppm
  Control value: 94
Rhizoctonia solani [4]; 210 gai/10a
  Control value: 96

## Cc1ccc(C(=O)NCC(NC(=O)OCCCl)C(C)C)cc1 (stereo not drawn) [Compound 3]
Pyricularia oryzae [2]; in vivo
  Effect (class of control value): A (key: A: Not less than 80%; B: Not less than 50% to less than 80%; C: Less than 50%)

## Cc1ccc(NC(=O)c2snnc2C)cc1Cl [Tiadinil]
Pyricularia oryzae [6]; 6 gai/box
  Control value: 95

## Cc1ccc(C(=O)NCC(NC(=O)OC(CF)CF)C(C)C)cc1 (stereo not drawn) [Compound 9]
Pyricularia oryzae [2]; in vivo
  Effect (class of control value): A (key: A: Not less than 80%; B: Not less than 50% to less than 80%; C: Less than 50%)

## Cc1ccc(C(=O)NCC(NC(=O)OCCC(F)(F)C(F)(F)C(F)(F)C(F)(F)F)C(C)C)cc1 (stereo not drawn) [Compound 14]
Pyricularia oryzae [2]; in vivo
  Effect (class of control value): B (key: A: Not less than 80%; B: Not less than 50% to less than 80%; C: Less than 50%)

## CC(C)OC(=O)C(C(=O)OC(C)C)=C1SCCS1 [Isoprothiolane, reference compound]
Pyricularia oryzae [1]; [7]
  pest or weed control at 400 ppm: 98%

## Cc1ccc(C(=O)NC(CNC(=O)OCC(Cl)(Cl)Cl)C(C)C)cc1 (stereo not drawn) [Compound 7, N-(2,2,2-trichloroethyloxycarbonyl)-N′-(4-methylbenzoyl)-3-methyl-1,2-butanediamine]
Pyricularia oryzae [2]; [8]
  Effect (class of control value): A (Not less than 80%)

## N#Cc1ccccc1NC(=O)c1snc(Cl)c1Cl [Compound 104]
Pyricularia oryzae [6]; 1.5 gai/box
  Control value: 98

## C[C@@H](NC(=O)C(C#N)C(C)(C)C)c1ccc(Cl)cc1Cl (stereo partly drawn) [Diclocymet]
Pyricularia oryzae [6]; 1.5 gai/box
  Control value: 97

## Cc1ccc(C(=O)NC(CNC(=O)OC(C(F)(F)F)C(F)(F)F)C(C)C)cc1 (stereo not drawn) [Compound 8, N-(1,1,1,3,3,3-hexafluoro-2-propyloxycarbonyl)-N′-(4-methylbenzoyl)-3-methyl-1,2-butanediamine]
Pyricularia oryzae [2]; [8]
  Effect (class of control value): A (Not less than 80%)

## Cc1ccc(C(=O)NCC(NC(=O)OCCI)C(C)C)cc1 (stereo not drawn) [Compound 5]
Pyricularia oryzae [2]; in vivo
  Effect (class of control value): A (key: A: Not less than 80%; B: Not less than 50% to less than 80%; C: Less than 50%)

## CSC(=O)c1cccc2nnsc12 [Acibenzolar-S-methyl]
Pyricularia oryzae [6]; 1 gai/box
  Control value: 96

## C/C(=N/Nc1nc(C)cc(C)n1)c1ccccc1C [Ferimzone, reference compound]
Pyricularia oryzae [1]; [7]
  pest or weed control at 300 ppm: 98%

## Cc1ccc(C(=O)NCC(NC(=O)OC(CBr)CBr)C(C)C)cc1 (stereo not drawn) [Compound 11]
Pyricularia oryzae [2]; in vivo
  Effect (class of control value): B (key: A: Not less than 80%; B: Not less than 50% to less than 80%; C: Less than 50%)
